One may read the IC50 as the concentration needed to halve the response being measured.

This note sets out measurements from US20230382904A1, “SUBSTITUTED 4-([1,2,4]TRIAZOLO[1,5-a]PYRIDIN-6-YL)THIOPHENE-2-CARBOXAMIDE DERIVATIVES AND USE THEREOF” (The Johns Hopkins University, priority 2020, published 2023).

One test addresses DLK (Homo sapiens (Human), UniProt Q12852). Nature of the test: DLK biochemical assay (TR-FRET, MKK7 phosphorylation). Here is the method:
DLK assay is a biochemical assay format designed to screen for inhibitors of DLK. Enzymatic activity of DLK was measured by monitoring phosphorylation of the physiological substrate MKK7 (MAP2K7, Dual specificity mitogen-activated protein kinase kinase 7). Phosphorylation was detected by a TR-FRET system whereby His-tagged MKK7 was labeled by a XL665-labeled anti-His antibody (FRET acceptor, emission 665 nm). DLK phosphorylates MKK7 at T275/S277, which was detected by an Eu-labeled anti-phospho-MKK7 (T275/S277) antibody (F RET donor, excitation 340 nm). Phosphorylation of MKK7 results in an increased TR-FRET signal (Ratio XL665-channel/Eu-channel) and inhibition of enzymatic activity of DLK decreases the TR-FRET signal.
Assay Protocol for 1536 MTP format: test compounds were predispensed (60 nl) in test plates; +3 μl DLK solution (10 nM DLK, catalytic domain, Carna Biosiences, 0.6 mM DTT in assay buffer); +2 μl substrate solution (15 nM MKK7, LDB; 60 μM ATP; 0.4 mM DTT in assay buffer); 90 min incubation at RT; +2 μl detection mix (5 nM XL665-labeled anti-His antibody, Cisbio; 0.1 nM Eu-labeled anti-phospho-MKK7 (T275/S277), Cisbio/Millipore in detection buffer); 16 h incubation at 37° C.; endpoint measurement BMG (HTRF).
Assay Protocol for 384 low volume MTP format: 1 μl of test compounds were pipetted into test plate; +5 μl DLK solution (10 nM DLK, catalytic domain, Carna Biosiences in assay buffer); +5 μl substrate solution (15 nM MKK7, LDB; 60 μM ATP, in assay buffer); 90 min incubation at RT; +9 μl detection mix (20 nM XL665-labeled anti-His antibody, Cisbio; 0.4 nM Eu-labeled anti-phospho-MKK7 (T275/S277), Cisbio/Millipore in detection buffer); 16 h incubation at 4° C.; endpoint measurement BMG (HTRF).
(§1) All indicated concentrations final concentrations.
Assay buffer (384 format): 50 mM Hepes pH 7.5, 10 mM MgCl2, 1 mM EGTA, 1 mM DTT, 0,01% Triton X-100, 0.01% BSA, 1:500 Smart Block.
(§2) Detection buffer: 25 mM Tris/HCl pH 7.5, 100 mM EDTA, 100 mM NaCl, 200 mM KF, 0.01% Tween 20, 1:500 Smart Block.
For orientation: In TR-FRET formats the signal depends on donor and acceptor labels being close together.

The target in another test is LZK (Homo sapiens (Human), UniProt O43283). The experiment in a line: LZK biochemical assay (TR-FRET, MKK7 phosphorylation). On the procedure: LZK assay is a biochemical assay format designed to screen for inhibitors of LZK. Enzymatic activity of LZK was measured by monitoring phosphorylation of the physiological substrate MKK7 (MAP2K7, Dual specificity mitogen-activated protein kinase kinase 7). Phosphorylation was detected by a TR-FRET system whereby His-tagged MKK7 was labeled by a XL665-labeled anti-His antibody (FRET acceptor, emission 665 nm). LZK phosphorylates MKK7 at T275/S277 which were detected by an Eu-labeled anti-phospho-MKK7 (T275/S277) antibody (FRET donor, excitation 340 nm). Phosphorylation of MKK7 results in an increased TR-FRET signal (Ratio XL665-channel/Eu-channel) and inhibition of enzymatic activity of LZK decreases the TR-FRET signal.
Chain of LZK (O43283 168-409): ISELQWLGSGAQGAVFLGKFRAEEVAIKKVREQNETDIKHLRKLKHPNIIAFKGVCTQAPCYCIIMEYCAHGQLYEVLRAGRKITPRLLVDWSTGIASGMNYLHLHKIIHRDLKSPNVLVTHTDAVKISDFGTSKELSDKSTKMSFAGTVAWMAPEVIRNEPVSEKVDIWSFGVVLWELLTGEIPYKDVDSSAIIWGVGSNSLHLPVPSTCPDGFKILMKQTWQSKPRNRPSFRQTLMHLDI
Assay Protocol for 384 low volume MTP format: 1 μl of test compound was pipetted into test plate; +5 μl LZK solution (10 nM LZK, catalytic domain, Carna Biosiences in assay buffer); +5 μl substrate solution (15 nM MKK7, LDB; 15 μM ATP, in assay buffer); 90 min incubation at RT; +5 μl detection mix (20 nM XL665-labeled anti-His antibody, Cisbio; 0.4 nM Eu-labeled anti-phospho-MKK7 (T275/S277), Cisbio/Millipore in detection buffer), 16 h incubation at 32° C.; endpoint measurement BMG (HTRF).
as §1
Assay buffer (384 format): 50 mM Hepes pH 7.5, 10 mM MgCl2, 1 mM EGTA, 1 mM DTT, 0.01% Triton X-100, 0.01% BSA, 1:500 Smart Block.
as §2

Molecules are shown by their SMILES.

Chain of DLK (Q12852 1-520): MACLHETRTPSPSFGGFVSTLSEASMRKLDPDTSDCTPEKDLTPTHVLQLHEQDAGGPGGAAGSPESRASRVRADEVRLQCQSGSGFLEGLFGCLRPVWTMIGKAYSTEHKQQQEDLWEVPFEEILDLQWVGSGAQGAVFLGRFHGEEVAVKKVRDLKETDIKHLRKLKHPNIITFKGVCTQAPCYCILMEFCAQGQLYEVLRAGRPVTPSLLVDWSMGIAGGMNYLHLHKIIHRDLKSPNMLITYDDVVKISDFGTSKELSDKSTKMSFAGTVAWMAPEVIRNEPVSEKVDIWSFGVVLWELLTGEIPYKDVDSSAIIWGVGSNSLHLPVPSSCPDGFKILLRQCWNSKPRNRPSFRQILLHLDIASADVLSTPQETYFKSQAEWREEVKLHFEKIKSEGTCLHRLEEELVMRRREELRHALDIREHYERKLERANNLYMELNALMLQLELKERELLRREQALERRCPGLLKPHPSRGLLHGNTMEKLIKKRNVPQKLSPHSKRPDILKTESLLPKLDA

With `C[C@H](NC(=O)c1cc(-c2cc(C(=O)NC3CNC(=O)C3)c3nc(N)nn3c2)cs1)c1ccccc1` (single isomer, unassigned) [Compound 55], the figures for the IC50 against DLK and against LZK were 88 nM and 6500 nM, respectively.
For `C[C@H](NC(=O)c1cc(-c2cc(C(=O)NC3CCNC3)c3nc(N)nn3c2)cs1)c1ccccc1` (single isomer, unassigned) [Compound 57], the IC50 against DLK was determined as 92 nM; against LZK, 2100 nM.
Turning to `C[C@H](NC(=O)c1cc(-c2cc(C(=O)NC3CCNC3)c3nc(N)nn3c2)cs1)c1ccc(F)cc1` (single isomer, unassigned) [Compound 66], the half-inhibitory concentration (IC50) at DLK was 88 nM; against LZK, 3500 nM.
With `CC(NC(=O)c1cc(-c2csc(C(=O)N[C@@H](C)c3ccccc3)c2)cn2nc(N)nc12)C(F)(F)F` (single isomer, unassigned) [Compound 71], the IC50 was 4.85 nM at DLK and 55 nM on LZK.
`CC(NC(=O)c1cc(-c2csc(C(=O)N[C@@H](C)c3ccccc3)c2)cn2nc(N)nc12)C(F)(F)F` (single isomer, unassigned) [Compound 72]: the values for the IC50 against DLK and at LZK were 89 nM and 6200 nM, respectively.
On to `CC[C@H](NC(=O)c1cc(-c2cc(C(=O)NC(C)CF)c3nc(N)nn3c2)cs1)c1ccc(F)cc1` (single isomer, unassigned) [Compound 144-2], for which the half-maximal inhibitory concentration (IC50) is 23 nM against DLK and 200 nM at LZK.
Regarding `C[C@H]1CCC[C@@H](NC(=O)c2cc(-c3ccc4nc(N)nn4c3)cs2)C1` (single isomer, unassigned) [Compound 165], the 50% inhibitory concentration (IC50) on DLK was 880 nM; against LZK it was above 30000 nM.
On to `C[C@H]1CCC[C@H](NC(=O)c2cc(-c3ccc4nc(N)nn4c3)cs2)C1` (single isomer, unassigned) [Compound 198], for which the 50% inhibitory concentration (IC50) on DLK is 1250 nM; against LZK, above 30000 nM.
In the case of `C[C@H]1CCC[C@H](NC(=O)c2cc(-c3ccc4nc(N)nn4c3)cs2)C1` (single isomer, unassigned) [Compound 199], the half-maximal inhibitory concentration (IC50) at DLK is 1200 nM; against LZK, above 30000 nM.
Turning to `C[C@H]1CCC[C@@H](NC(=O)c2cc(-c3ccc4nc(N)nn4c3)cs2)C1` (single isomer, unassigned) [Compound 200], the IC50 against DLK was 560 nM; against LZK, above 30000 nM.
As for `COC[C@H](NC(=O)c1cc(-c2cc(C(=O)NC(C)C)c3nc(N)nn3c2)cs1)c1ccccc1` (stereo in doubt) [Compound 91], the figures for the 50% inhibitory concentration (IC50) against DLK and on LZK were 3.3 nM and 48 nM, respectively.
Turning to `CN(C)C(=O)c1cc(-c2csc(C(=O)NCc3ccc(F)cc3)c2)cn2nc(N)nc12` [Compound 1], the figures for the concentration for half-maximal inhibition (IC50) against DLK and against LZK were 20000 nM and above 30000 nM, respectively.
Consider `COc1cccc(CNC(=O)c2cc(-c3cc(C(=O)N(C)C)c4nc(N)nn4c3)cs2)c1` [Compound 2], for which the results for the IC50 at DLK and on LZK were 18000 nM and above 30000 nM, respectively.
Take `CCNC(=O)c1cc(-c2csc(C(=O)NCc3ccccc3)c2)cn2nc(N)nc12` [Compound 5]: the IC50 on DLK came to 160 nM; on LZK, 1200 nM.
Turning to `CCNC(=O)c1cc(-c2csc(C(=O)NCc3cccc(OC)c3)c2)cn2nc(N)nc12` [Compound 6], the IC50 at DLK was 84 nM; on LZK, 1100 nM.
Consider `CCNC(=O)c1cc(-c2csc(C(=O)NCc3ccc(F)cc3)c2)cn2nc(N)nc12` [Compound 7], for which the half-maximal inhibitory concentration (IC50) against DLK came out at 87 nM; against LZK, 480 nM.
Taken in the same sequence, the figures for `CNC(=O)c1cc(-c2csc(C(=O)NCc3cccc(OC)c3)c2)cn2nc(N)nc12` [Compound 8] were 140 nM and 2200 nM.
With `CNC(=O)c1cc(-c2csc(C(=O)NCc3ccc(F)cc3)c2)cn2nc(N)nc12` [Compound 9], the figures for the half-maximal inhibitory concentration (IC50) on DLK and against LZK were 130 nM and 1200 nM, respectively.
As for `CNC(=O)c1cc(-c2csc(C(=O)NCc3ccccc3)c2)cn2nc(N)nc12` [Compound 10], the 50% inhibitory concentration (IC50) against DLK amounted to 120 nM; on LZK, 990 nM.
In the case of `CC(C)NC(=O)c1cc(-c2csc(C(=O)NCc3ccccc3)c2)cn2nc(N)nc12` [Compound 11], the IC50 turned out to be 17 nM against DLK and 90 nM against LZK.
In the case of `CC(C)NC(=O)c1cc(-c2csc(C(=O)NC3CCCCC3)c2)cn2nc(N)nc12` [Compound 12], the IC50 at DLK stood at 21 nM; on LZK, 400 nM.
For the compound `COc1cccc(CNC(=O)c2cc(-c3cc(C(=O)NC(C)(C)C)c4nc(N)nn4c3)cs2)c1` [Compound 13], the values for the half-inhibitory concentration (IC50) against DLK and against LZK were 34 nM and 140 nM, respectively.
Turning to `CC(C)(C)NC(=O)c1cc(-c2csc(C(=O)NC3CCCCC3)c2)cn2nc(N)nc12` [Compound 14], the IC50 on DLK stood at 34 nM; at LZK, 270 nM.
Take `CC(C)(C)NC(=O)c1cc(-c2csc(C(=O)NCc3ccc(F)cc3)c2)cn2nc(N)nc12` [Compound 15]: the concentration for half-maximal inhibition (IC50) against DLK was determined as 58 nM; against LZK, 150 nM.
Regarding `CC(C)(C)NC(=O)c1cc(-c2csc(C(=O)NCc3ccccc3)c2)cn2nc(N)nc12` [Compound 16], the values for the 50% inhibitory concentration (IC50) against DLK and at LZK were 37 nM and 130 nM, respectively.
Taken in the same sequence, the figures for `C[C@H](NC(=O)c1cc(-c2cc(C(=O)NC(C)(C)C)c3nc(N)nn3c2)cs1)c1ccc(F)cc1` [Compound 17] were 31 nM and 150 nM.
As for `C[C@H](NC(=O)c1cc(-c2cc(C(=O)NC(C)(C)C)c3nc(N)nn3c2)cs1)c1ccccc1` [Compound 18], the IC50 against DLK is 12 nM; against LZK, 110 nM.
Consider `CC(C)NC(=O)c1cc(-c2csc(C(=O)N[C@@H](C)c3ccccc3)c2)cn2nc(N)nc12` [Compound 20], for which the IC50 turned out to be 6.32 nM against DLK and 122 nM on LZK.
As to `C[C@@H](CO)NC(=O)c1cc(-c2csc(C(=O)NCc3ccccc3)c2)cn2nc(N)nc12` [Compound 21], the half-maximal inhibitory concentration (IC50) at DLK came out at 9.3 nM; at LZK, 40 nM.
Taken in the same sequence, the figures for `Nc1nc2c(C(=O)NC3CCNC3)cc(-c3csc(C(=O)NCc4ccc(F)cc4)c3)cn2n1` (stereo not drawn) [Compound 22] were 185 nM and 650 nM.
On to `CC(C)(C)NC(=O)c1cc(-c2csc(C(=O)NCc3nc4ccccc4o3)c2)cn2nc(N)nc12` [Compound 23], for which the IC50 at DLK amounted to 300 nM; on LZK, 630 nM.
For the compound `COCCNC(=O)c1cc(-c2csc(C(=O)NCc3ccc(F)cc3)c2)cn2nc(N)nc12` [Compound 24], the figures for the IC50 against DLK and at LZK were 69 nM and 630 nM, respectively.
`C[C@H](NC(=O)c1cc(-c2cc(C(=O)N[C@@H](C)CO)c3nc(N)nn3c2)cs1)c1ccccc1` [Compound 25]: the values for the IC50 at DLK and on LZK were 4.61 nM and 61 nM, respectively.
As for `C[C@H](NC(=O)c1cc(-c2cc(C(=O)N[C@@H](C)CO)c3nc(N)nn3c2)cs1)c1ccc(F)cc1` [Compound 26, 2-Amino-6-(5-{[(1S)-1-(4-fluorophenyl)ethyl]carbamoyl}thiophen-3-yl)-N-[(2S)-1-hydroxypropan-2-yl][1,2,4]triazolo[1,5-a]pyridine-8-carboxamide], the IC50 against DLK was 6.4 nM; against LZK, 68 nM.
Take `CC(NC(=O)c1cc(-c2csc(C(=O)NCc3ccc(F)cc3)c2)cn2nc(N)nc12)C(F)(F)F` (stereo not drawn) [Compound 27]: the figures for the IC50 against DLK and against LZK were 58 nM and 99 nM, respectively.
As to `C[C@@H](CO)NC(=O)c1cc(-c2csc(C(=O)NCc3ccc(F)cc3)c2)cn2nc(N)nc12` [Compound 30], the IC50 at DLK was 16 nM; against LZK, 45 nM.
